Assay results published in patent US11478467B2 (priority 2017, dated 2022).

Assays:
[1] = target: T1, 5-HT2A receptors (Homo sapiens (Human), UniProt P28223); test: 5-HT2A receptor antagonist radioligand binding ([3H]ketanserin)
Experimental: HEK-293 cells expressing human recombinant 5HT2A receptor were used in the antagonist radioligand binding studies. […] The inhibition constants (Ki) were calculated using the Cheng Prusoff equation. Both sarpogrelate enantiomers were potent inhibitors of [3H]ketanserin binding (Table 1). M1 enantiomers also potently bind to 5HT2A receptors with the Ki values that are approximately one order of magnitude higher than those of sarpogrelate enantiomers (Table 1). There are no meaningful differences between enantiomers in terms of 5-HT2A receptor binding for sarpogrelate or its main metabolite.
5HT2a ASSAY: Evaluation of the affinity of compounds for the human 5-HT2A receptor in transfected HEK-293 cells determined in a radioligand binding assay. Cell membrane homogenates (30-50 μg protein) were incubated 15 min at 37° C. with 0.5 nM [3H]ketanserin in the absence or presence of the test compound in a buffer containing 50 mM Tris-HCl (pH 7.4). Nonspecific binding was determined in the presence of 1 μM ketanserin. Following incubation, the samples were filtered rapidly under vacuum through glass fiber filters presoaked with 0.3% PEI and rinsed several times with ice-cold 50 mM Tris-HCl using a 96-sample cell harvester. The filters were dried then counted for radioactivity in a scintillation counter using a scintillation cocktail (WO2005013952A1, EP1500391A1[ab1], incorporated in its entirety by reference).

[2] = target: T2, CYP2D6 (Homo sapiens (Human), UniProt P10635); test: Dextromethorphan O-demethylase activity in human liver microsomes; type: biochemical
T2 sequence (P10635 whole entry): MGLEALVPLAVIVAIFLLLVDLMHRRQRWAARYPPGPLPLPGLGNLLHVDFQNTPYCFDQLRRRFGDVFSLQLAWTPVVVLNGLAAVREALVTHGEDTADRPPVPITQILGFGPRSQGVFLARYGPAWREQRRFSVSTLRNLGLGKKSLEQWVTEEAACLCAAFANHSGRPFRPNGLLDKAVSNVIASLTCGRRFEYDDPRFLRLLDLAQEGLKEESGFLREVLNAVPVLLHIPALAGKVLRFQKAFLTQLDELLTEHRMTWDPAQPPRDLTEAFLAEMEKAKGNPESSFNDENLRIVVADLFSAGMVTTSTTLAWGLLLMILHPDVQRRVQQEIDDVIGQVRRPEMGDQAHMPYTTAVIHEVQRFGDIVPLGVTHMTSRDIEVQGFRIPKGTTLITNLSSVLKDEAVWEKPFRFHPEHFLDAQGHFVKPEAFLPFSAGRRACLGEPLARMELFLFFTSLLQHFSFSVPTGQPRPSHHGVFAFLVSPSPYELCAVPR
Experimental: Dextromethorphan O-demethylase activity was determined in human liver microsomes. […] The incubation mixtures contained pooled human liver microsomes (final concentrations: 0.25 mg/ml), dextromethorphan, and a NADPH-generating system (1.3 mM NADP+, 3.3 mM glucose 6-phosphate, 3.3 mM MgCl2, and 0.4 U/ml glucose-6-phosphate dehydrogenase). […] All incubations were performed in triplicate, and mean values were used for analysis. […] Both sarpogrelate enantiomers inhibited CYP2D6-mediated dextromethorphan O-demethylation (Table 4).

[3] = test system: hyperactivity in rats after olfactory bulbectomy; test: Motor hyperactivity induced by olfactory bulbectomy in rats; type: in vivo, rat
Experimental: In a dedicated set of studies, adult male Sprague-Dawley rats (Charles River, Germany) were subjected to bilateral olfactory bulbectomy performed under ketamine/xylasine anesthesia. The animals were allowed to recover for 14 days following surgery while being handled daily to eliminate any aggressiveness that would otherwise arise. Sham-operated animals were treated in the same way but the olfactory bulbs were left intact. Drugs administration and locomotor activity testing were performed 4 times for each rat with 72 hours break between consecutive test sessions. Prior to each test session, animals were first treated with dextromethorphan (0, 15, 30 or 60 mg/kg. per os) followed 15 min later by sarpogrelate (1, 3 and 10 mg/kg, intraperitoneal) and another 15 min later were placed into Opto-Varimex cages for locomotor activity recording over 30 min. Hyperactivity in rats after olfactory bulbectomy is observed mostly during the early portion of the test sessions. […] Post hoc pairwise comparisons (Sidak's multiple comparisons test) confirmed that significant differences between bulbectomized and sham-operated were observed only in rats that were pretreated prior to the test with vehicle instead of sarpogrelate.

[4] = Pharmacokinetic study of sarpogrelate hydrochloride i.v. in rats; type: in vivo, rat; conditions: rat, in vivo; 2 mg/kg intravenous bolus, male Wistar rats, plasma; read-out: Apparent terminal elimination half-life (converted)
Experimental: Pharmacokinetic study was performed in male Wistar rats equipped with the jugular vein cannulas. Sarpogrelate hydrochloride was formulated in Pharmasolv: PBS buffer (5:95) mixture and administered at the dose of 2 mg/kg intravenously. Blood samples were collected from the jugular vein using heparin as anticoagulant at the scheduled time-points: 5 min, 15 min, 30 min, 1 h, 1.5 h, 2 h, 4 h, and 6 h. An LC-MS/MS bioanalytical method was used for the simultaneous quantification of sarpogrelate and M1 in plasma samples. […] Formation of M1 metabolite of sarpogrelate was rapid as the highest M1 concentrations were measured at the first sampling time points.

[5] = test system: PCP-induced hyperactivity; test: Phencyclidine-induced hyperactivity in rats (sarpogrelate and dextromethorphan); type: in vivo, rat
[6] = Blood glucose levels and oral glucose tolerance in rats; type: in vivo, rat; conditions: dextromethorphan administered in combination with sarpogrelate
Experimental: Test substances were administered to male Wistar (Han) rats (180-280 g at the beginning of the experiments; Janvier Labs) housed in groups under free access to food and water. After overnight food deprivation, the tip of the tail was cut, each rat was weighed, housed individually and left without stress in a quiet room. Approximately 1 hour later, baseline blood glucose was measured from a drop of blood collected from the tail tip, using a commercially available glucose-meter (OneTouch®, Lifescan) and then rats received intraperitoneal injection of sarpogrelate and/or dextromethorphan and 30 min later blood glucose was measured again and rats immediately challenged with glucose at 2 g/kg by oral gavage. Then, blood glucose was measured at 6 time-points until 180 minutes post-glucose challenge.

[7] = test system: DOI-induced head shakes; test: DOI-induced head shakes in rats; type: in vivo, rat; conditions: 0.3, 1 and 3 mg/kg 30 min prior to DOI 3 mg/kg; Sprague-Dawley rats
[8] = target: T1, 5-HT2A receptors; conditions: compared with ritanserin; cited from earlier work
[9] = target: 2D6 (Homo sapiens (Human), UniProt P10635); conditions: in vivo; cited from earlier work
2D6, sequence (P10635 whole entry): as above

[10] = target: T2, CYP2D6; conditions: cited from earlier work
[11] = target: T2, CYP2D6; conditions: microsomes
Experimental: Dextromethorphan O-demethylase activity is determined in human liver microsomes. […] The incubation mixtures contain pooled human liver microsomes, dextromethorphan, and a NADPH-generating system. After incubation and centrifugation, the supernatant is diluted up to 100-fold with acetonitrile and then injected into the LC-MS/MS system. All incubations are performed in triplicate, and mean values are used for analysis. The IC50 values (concentration causing a half-maximal inhibition of control specific binding) and Hill coefficients (nH) are determined using methods such as non-linear regression analysis of the competition curves generated with mean replicate values using Hill equation curve fitting.

[12] = rat, in vivo, cited from earlier work
[13] = test system: immobility induced by tail suspension; test: Tail suspension test in mice; type: in vivo, mouse; conditions: ritanserin with effective dose of memantine 10 mg/kg
Experimental: Tail suspension is one of the classical tests used to study antidepressant drugs and was also applied to evaluate antidepressant-like effects of NMDA receptor channel blockers (Kos T et al., Effect of 5-HT3 receptor antagonist MDL 72222 on behaviors induced by ketamine in rats and mice. European Neuropsychopharmacology (2006) 16:297-310). Mice were transferred from the housing room to the testing area in their home cages and allowed to adapt to the new environment for at least 1 h before drug treatment. Immobility was induced by tail suspension whereby mice were attached individually on a paper adhesive tape, 65 cm above the table top. The tape was placed approximately 1 cm from the tip of the tail. Animals were suspended for 6 min and the duration of immobility was recorded. Mice were considered immobile only when they were completely motionless. […]

T1 sequence (P28223 whole entry): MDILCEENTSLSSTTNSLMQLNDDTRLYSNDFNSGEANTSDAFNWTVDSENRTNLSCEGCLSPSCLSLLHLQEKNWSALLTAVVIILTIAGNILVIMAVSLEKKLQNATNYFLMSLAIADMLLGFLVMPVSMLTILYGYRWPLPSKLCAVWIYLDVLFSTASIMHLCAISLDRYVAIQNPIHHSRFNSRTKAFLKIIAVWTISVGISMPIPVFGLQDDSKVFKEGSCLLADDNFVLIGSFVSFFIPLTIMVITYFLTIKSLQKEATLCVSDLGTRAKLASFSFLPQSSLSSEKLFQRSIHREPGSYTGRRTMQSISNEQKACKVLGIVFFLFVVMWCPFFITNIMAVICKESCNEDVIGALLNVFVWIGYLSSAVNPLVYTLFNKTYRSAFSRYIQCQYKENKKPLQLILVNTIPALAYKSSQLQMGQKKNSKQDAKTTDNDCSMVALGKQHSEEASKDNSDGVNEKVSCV

`COc1cccc(CCc2ccccc2OCC(CN(C)C)OC(=O)CCC(=O)O)c1` (racemic) [Compound 50, 4-((1-(dimethylamino)-3-(2-(3-methoxyphenethyl)phenoxy)propan-2-yl)oxy)-4-oxobutanoic acid] gave a Ki ([1]; Ki calculated using the Cheng Prusoff equation) of 5.01 nM, an IC50 ([1]; inhibition of [3H]ketanserin binding, HEK-293 cells expressing human recombinant 5HT2A receptor) of 9.6 nM and an IC50 [2] of 1200 nM. The “activity of sham-operated rats” value ([3]; doses with anti-hyperactivity effects) was “do not affect activity of sham-operated rats”, the “time in ambulations of bulbectomized rats” value ([3]; sarpogrelate 3 or 10 mg/kg i.p., first 15 min of the test) was “spent less time in ambulations” and the half-life [4] was 1.21 ± 0.159 h. The “ANOVA interaction between dose of sarpogrelate and dose of dextromethorphan” value ([5]; PCP 5 mg/kg s.c., 60-120 min, listed as sarpogrelate racemate) was “significant interaction”, the “activity in PCP-treated rats” value ([5]; given in the absence of dextromethorphan) was “neither sarpogrelate racemate nor sarpogrelate enantiomers reduced activity” and the “motor hyperactivity in PCP-treated rats” value ([5]; in the presence of dextromethorphan, racemate 3 mg/kg, (−) sarpogrelate 1 or 3 mg/kg i.p., PCP 5 mg/kg s.c., 60-120 min) was “inhibited motor hyperactivity in PCP-treated rats”. For the same molecule, the “effect of dextromethorphan on blood glucose level” value [6] was “reversed”, the “frequency of DOI-induced head shakes” value [7] was “reduced” and the “affinity for 5-HT2A receptors” value [8] was “the same affinity as ritanserin”. The “classification as 2D6 inhibitor” value [9] was “weak 2D6 inhibitor”, the “increase in the substrate AUC” value [9] was “less than 2 fold” and the “inhibition type (Dixon plots)” value [10] was “fit well to all competitive inhibition types”.

For `CN(C)CCO[C@]1(c2ccccc2)C[C@H]2CC[C@]1(C)C2(C)C` [Compound 829, N,N-dimethyl-2-[[(1R,3S,4R)-4,7,7-trimethyl-3-phenyl-3-bicyclo[2.2.1]heptanyl]oxy]ethanamine], the “CYP2D6-mediated dextromethorphan O-demethylation” value [11] is given as “observed to inhibit”, the “t(max)” value ([12]; po) is given as 1.0 h and the “AUC (0.96) for H-3 relative to C-14 (times higher)” value [12] is given as 10-15 times. For the same molecule, the “concentrations in the hypophysis relative to plasma and brain tissues” value [12] was “at least two times higher”, the “entry into brain tissues” value [12] was “intact molecules entered brain tissues from the circulation” and the “ratio of AUC of H-3-labelled compound over C-14” value [12] was 50-60. For the same molecule, the “time of peak characteristic of enterohepatic cycle” value [12] was 12 h and the “time of peak concentrations after the final treatment” value [12] was 0.5 h.

With `Cc1nc2sccn2c(=O)c1CCN1CCC(=C(c2ccc(F)cc2)c2ccc(F)cc2)CC1` [ritanserin] the “antidepressant-like effects of memantine (immobility time)” value [13] was “reverse antidepressant-like effects of an effective dose of memantine”.
